How the values were obtained:
[1] = system: antibodies in sera from SARS patients (sera 1a, 1b, 2, 6, 37, 62, London, SARS-yellow, SARS-green); format: binding, human; set-up: Binding of serum 6 to linear peptides of protein X1 of SARS-CoV Urbani / Binding of serum 37 to linear peptides of protein X1 of SARS-CoV Urbani / Binding of serum 6 to looped/cyclic peptide (PEPSCAN-ELISA) / Binding of serum 37 to looped/cyclic peptide (PEPSCAN-ELISA) / Binding of serum 37 to looped/cyclic peptides of protein X1 of SARS-CoV Urbani / Binding of serum 6 to linear peptides of protein X2 / Binding of serum 37 to linear peptides of protein X2 / Binding of serum 37 to looped/cyclic peptides of protein X2 of SARS-CoV Urbani / Binding of serum 6 to linear peptides of protein M of SARS-CoV Urbani / Binding of serum 37 to linear peptides of protein M of SARS-CoV Urbani / Binding of serum 6 to looped/cyclic peptides of protein M of SARS-CoV Urbani / Binding of serum 37 to looped/cyclic peptides of protein M of SARS-CoV Urbani / Binding of serum 6 to linear peptides of protein X3 of SARS-CoV Urbani / Binding of serum 37 to linear peptides of protein X3 of SARS-CoV Urbani / Binding of serum 37 to looped/cyclic peptides of protein X3 of SARS-CoV Urbani / Binding of serum 6 to linear peptides of protein X4 of SARS-CoV Urbani / Binding of serum 37 to linear peptides of protein X4 of SARS-CoV Urbani / Binding of serum 37 to looped/cyclic peptides of protein X4 of SARS-CoV Urbani / Binding of serum 6 to linear peptides of protein X5 of SARS-CoV Urbani / Binding of serum 37 to linear peptides of protein X5 of SARS-CoV Urbani / Binding of serum 37 to looped/cyclic peptides of protein X5 of SARS-CoV Urbani / Binding of serum 6 to linear peptides of protein N of SARS-CoV Urbani / Binding of serum 37 to linear peptides of protein N of SARS-CoV Urbani / Binding of serum 6 to linear peptide (PEPSCAN-ELISA) / Binding of serum 1a to looped/cyclic peptides of protein N of SARS-CoV Urbani / Binding of serum 1b to looped/cyclic peptides of protein N of SARS-CoV Urbani / Binding of serum 2 to looped/cyclic peptides of protein N of SARS-CoV Urbani / Binding of serum 6 to looped/cyclic peptides of protein N of SARS-CoV Urbani / Binding of serum 37 to looped/cyclic peptides of protein N of SARS-CoV Urbani / Binding of serum 62 to looped/cyclic peptides of protein N of SARS-CoV Urbani / Binding of serum London to looped/cyclic peptides of protein N of SARS-CoV Urbani / Binding of serum SARS-green to looped/cyclic peptides of protein N of SARS-CoV Urbani: unit not given here
[2] = system: control sera (pooled serum of ten healthy LUMC hospital workers; commercial negative donor pooled serum from the Dutch bloodbank); format: binding, human; set-up: Binding of Control serum LUMC to linear peptides / Binding of Control serum Blood-bank to linear peptides / Binding of Control serum LUMC to looped peptides / Binding of Control Serum Blood-Bank to Looped peptides / Binding of Control serum LUMC to linear peptides of the protein M of SARS-CoV Urbani / Binding of Control serum Blood-bank to linear peptides of the protein M of SARS-CoV Urbani / Binding of Control serum LUMC to looped peptides of the protein M of SARS-CoV Urbani / Binding of Control Serum Blood-Bank to Looped peptides of the protein M of SARS-CoV Urbani: unit not given here
[3] = system: rabbit serum obtained by immunizing a rabbit with the SARS-CoV strain Frankfurt 1; format: binding; set-up: Binding of a rabbit serum to linear peptides / Binding of a rabbit serum to looped peptides / Rabbit serum linear peptides / Rabbit serum looped peptides / Binding of a rabbit serum to linear peptides of protein N of SARS-CoV Urbani (Rabbit serum linear peptides) / Binding of a rabbit serum to looped/cyclic peptides of protein N of SARS-CoV Urbani (Rabbit serum looped peptides): unit not given here

YNRYRIGNYKLNTDH
Binding of serum 1a to linear peptides of protein M of SARS-CoV Urbani [1]: 0.7
Binding of serum 1a to looped/cyclic peptides of protein M of SARS-CoV Urbani [1]: 0.8
Binding of serum 1b to linear peptides of protein M of SARS-CoV Urbani [1]: 0.6
Binding of serum 1b to looped/cyclic peptides of protein M of SARS-CoV Urbani [1]: 0.7
Binding of serum 2 to linear peptides of protein M of SARS-CoV Urbani [1]: 0.4
Binding of serum 2 to looped/cyclic peptides of protein M of SARS-CoV Urbani [1]: 0.7
Binding of serum 6 to linear peptides of protein M of SARS-CoV Urbani [1]: 0.5
Binding of serum 6 to looped/cyclic peptides of protein M of SARS-CoV Urbani [1]: 1.1
Binding of serum 37 to linear peptides of protein M of SARS-CoV Urbani [1]: 0.5
Binding of serum 37 to looped/cyclic peptides of protein M of SARS-CoV Urbani [1]: 0.5
Binding of serum 62 to linear peptides of protein M of SARS-CoV Urbani [1]: 0.4
Binding of serum 62 to looped/cyclic peptides of protein M of SARS-CoV Urbani [1]: 0.6
Binding of serum London to linear peptides of protein M of SARS-CoV Urbani [1]: 0.5
Binding of serum London to looped/cyclic peptides of protein M of SARS-CoV Urbani [1]: 0.6
Binding of serum SARS-green to linear peptides of protein M of SARS-CoV Urbani [1]: 0.4
Binding of serum SARS-green to looped/cyclic peptides of protein M of SARS-CoV Urbani [1]: 0.3
Binding of serum SARS-yellow to linear peptides of protein M of SARS-CoV Urbani [1]: 0.1
Binding of serum SARS-yellow to looped/cyclic peptides of protein M of SARS-CoV Urbani [1]: 0.7
Binding of Control Serum Blood-Bank to Looped peptides of the protein M of SARS-CoV Urbani [2]: 0.8
Binding of Control serum Blood-bank to linear peptides of the protein M of SARS-CoV Urbani [2]: 0.5
Binding of Control serum LUMC to linear peptides of the protein M of SARS-CoV Urbani [2]: 0.6
Binding of Control serum LUMC to looped peptides of the protein M of SARS-CoV Urbani [2]: 0.9
Rabbit serum linear peptides [3]: 0.3
Rabbit serum looped peptides [3]: 0.5

TLIVFTSCELYHYQE
Binding of serum 1a to linear peptides of protein X4 of SARS-CoV Urbani [1]: 0.8
Binding of serum 1a to looped/cyclic peptides of protein X4 of SARS-CoV Urbani [1]: 0.8
Binding of serum 1b to linear peptides of protein X4 of SARS-CoV Urbani [1]: 0.8
Binding of serum 1b to looped/cyclic peptides of protein X4 of SARS-CoV Urbani [1]: 0.8
Binding of serum 2 to linear peptides of protein X4 of SARS-CoV Urbani [1]: 0.5
Binding of serum 2 to looped/cyclic peptides of protein X4 of SARS-CoV Urbani [1]: 0.8
Binding of serum 6 to linear peptides of protein X4 of SARS-CoV Urbani [1]: 0.6
Binding of serum 6 to looped/cyclic peptides of protein X4 of SARS-CoV Urbani [1]: 0.6
Binding of serum 37 to linear peptides of protein X4 of SARS-CoV Urbani [1]: 0.9
Binding of serum 37 to looped/cyclic peptides of protein X4 of SARS-CoV Urbani [1]: 0.9
Binding of serum 62 to linear peptides of protein X4 of SARS-CoV Urbani [1]: 0.9
Binding of serum 62 to looped/cyclic peptides of protein X4 of SARS-CoV Urbani [1]: 0.8
Binding of serum London to linear peptides of protein X4 of SARS-CoV Urbani [1]: 0.8
Binding of serum London to looped/cyclic peptides of protein X4 of SARS-CoV Urbani [1]: 0.3
Binding of serum SARS-green to linear peptides of protein X4 of SARS-CoV Urbani [1]: 1.1
Binding of serum SARS-green to looped/cyclic peptides of protein X4 of SARS-CoV Urbani [1]: 1.0
Binding of serum SARS-yellow to linear peptides of protein X4 of SARS-CoV Urbani [1]: 0.6
Binding of serum SARS-yellow to looped/cyclic peptides of protein X4 of SARS-CoV Urbani [1]: 0.9
Binding of Control Serum Blood-Bank to Looped peptides [2]: 0.7
Binding of Control serum Blood-bank to linear peptides [2]: 0.7
Binding of Control serum LUMC to linear peptides [2]: 0.8
Binding of Control serum LUMC to looped peptides [2]: 1.0
Rabbit serum linear peptides [3]: 0.5
Rabbit serum looped peptides [3]: 0.8

ALVFLILCFTIKRKT
Binding of serum 1a to linear peptides of protein X4 of SARS-CoV Urbani [1]: 0.7
Binding of serum 1a to looped/cyclic peptides of protein X4 of SARS-CoV Urbani [1]: 0.8
Binding of serum 1b to linear peptides of protein X4 of SARS-CoV Urbani [1]: 0.6
Binding of serum 1b to looped/cyclic peptides of protein X4 of SARS-CoV Urbani [1]: 0.5
Binding of serum 2 to linear peptides of protein X4 of SARS-CoV Urbani [1]: 0.7
Binding of serum 2 to looped/cyclic peptides of protein X4 of SARS-CoV Urbani [1]: 0.8
Binding of serum 6 to linear peptides of protein X4 of SARS-CoV Urbani [1]: 0.7
Binding of serum 6 to looped/cyclic peptides of protein X4 of SARS-CoV Urbani [1]: 0.9
Binding of serum 37 to linear peptides of protein X4 of SARS-CoV Urbani [1]: 0.7
Binding of serum 37 to looped/cyclic peptides of protein X4 of SARS-CoV Urbani [1]: 0.6
Binding of serum 62 to linear peptides of protein X4 of SARS-CoV Urbani [1]: 0.8
Binding of serum 62 to looped/cyclic peptides of protein X4 of SARS-CoV Urbani [1]: 0.7
Binding of serum London to linear peptides of protein X4 of SARS-CoV Urbani [1]: 0.8
Binding of serum London to looped/cyclic peptides of protein X4 of SARS-CoV Urbani [1]: 1.1
Binding of serum SARS-green to linear peptides of protein X4 of SARS-CoV Urbani [1]: 0.7
Binding of serum SARS-green to looped/cyclic peptides of protein X4 of SARS-CoV Urbani [1]: 0.5
Binding of serum SARS-yellow to linear peptides of protein X4 of SARS-CoV Urbani [1]: 0.4
Binding of serum SARS-yellow to looped/cyclic peptides of protein X4 of SARS-CoV Urbani [1]: 0.6
Binding of Control Serum Blood-Bank to Looped peptides [2]: 0.8
Binding of Control serum Blood-bank to linear peptides [2]: 0.8
Binding of Control serum LUMC to linear peptides [2]: 0.6
Binding of Control serum LUMC to looped peptides [2]: 0.7
Rabbit serum linear peptides [3]: 0.6
Rabbit serum looped peptides [3]: 0.6

Source: US20070128217A1 (priority 2003, published 2007)
